Data from patent publication US20230122249A1, “1H-PYRAZOLO[4,3-d]PYRIMIDINE COMPOUNDS AS TOLL-LIKE RECEPTOR 7 (TLR7) AGONISTS” (BRISTOL-MYERS SQUIBB COMPANY, priority 2020, published 2023).

Legend:
[1] = system: CD69 in human whole blood; assay: Induction of CD69 in human whole blood (hWB); format: cell-based; details: heparinized human whole blood, 17 h, CD69 surface staining; 100% set to 1 uM resiquimod; average where assay repeated
Method in brief: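 hWB stimulated with compound at 1 uM final (1 mM stock), 37° C o/n (17 hrs). Surface CD69-PE staining with CD14/CD19 gating, fix/lysis, then flow cytometry read. IC50 curves with 100% set to 1 uM resiquimod.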

[2] = biological target: T1, human TLR7 (Homo sapiens, UniProt Q9NYK1); assay: Human TLR7 agonist activity (hTLR7 reporter) assay in HEK-Blue TLR7 cells, SEAP readout; format: cell-based; details: 18 h treatment, average where assay repeated
T1 construct: host or cells: HEK-Blue TLR7 cells (engineered human embryonic kidney cells)
T1 sequence (Q9NYK1 27-1049): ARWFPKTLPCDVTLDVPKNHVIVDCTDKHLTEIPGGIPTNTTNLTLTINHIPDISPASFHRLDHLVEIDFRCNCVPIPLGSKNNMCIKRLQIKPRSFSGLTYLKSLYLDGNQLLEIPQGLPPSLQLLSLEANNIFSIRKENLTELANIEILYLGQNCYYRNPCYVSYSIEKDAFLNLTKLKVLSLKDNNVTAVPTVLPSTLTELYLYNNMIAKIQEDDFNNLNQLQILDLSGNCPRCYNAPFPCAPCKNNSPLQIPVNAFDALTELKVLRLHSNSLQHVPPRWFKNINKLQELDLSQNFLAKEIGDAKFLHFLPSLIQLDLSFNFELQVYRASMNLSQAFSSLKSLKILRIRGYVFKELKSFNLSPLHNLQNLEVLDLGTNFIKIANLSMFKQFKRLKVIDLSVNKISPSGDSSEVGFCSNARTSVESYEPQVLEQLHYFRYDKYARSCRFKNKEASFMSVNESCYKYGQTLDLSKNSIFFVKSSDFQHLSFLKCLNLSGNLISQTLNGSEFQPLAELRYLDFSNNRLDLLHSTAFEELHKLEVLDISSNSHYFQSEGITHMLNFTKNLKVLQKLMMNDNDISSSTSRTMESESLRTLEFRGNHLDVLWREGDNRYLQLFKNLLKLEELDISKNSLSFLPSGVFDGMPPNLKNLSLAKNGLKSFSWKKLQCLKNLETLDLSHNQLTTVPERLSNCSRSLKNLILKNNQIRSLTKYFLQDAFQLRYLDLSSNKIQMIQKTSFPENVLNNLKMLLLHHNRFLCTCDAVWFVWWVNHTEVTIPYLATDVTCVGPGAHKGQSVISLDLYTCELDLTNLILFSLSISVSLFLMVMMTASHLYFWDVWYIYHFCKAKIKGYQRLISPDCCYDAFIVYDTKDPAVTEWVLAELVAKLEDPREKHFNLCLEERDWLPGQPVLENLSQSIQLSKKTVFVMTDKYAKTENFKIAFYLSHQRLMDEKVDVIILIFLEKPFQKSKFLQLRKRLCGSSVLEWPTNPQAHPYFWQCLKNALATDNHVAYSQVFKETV
Method in brief: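 HEK-Blue TLR7 cells (15,000/well) treated with compound for 18 h at 37 °C, 5% CO2. Secreted SEAP measured with Quanti-Blue, 30 min, OD 620 nm. EC50 taken as concentration giving half-maximal response between baseline and maximum.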

| EC50 [1] [nM] | EC50 [2] [nM] | SMILES |
| --- | --- | --- |
| 50.6 | 247 | CN1CCN(C(=O)c2ccc(Cn3ncc4nc(N)nc(NCC5CC6(CC6)C5)c43)c(OC(F)F)c2)CC1 [Compound 221] |
| 2.4 | 16 | COc1cc(C(=O)N(C)CCN(C)C)ccc1Cn1ncc2nc(N)nc(NCC3CC4(CC4)C3)c21 [Compound 222] |
| 520 | 1400 | Nc1nc(NCC2CC3(CC3)C2)c2c(cnn2Cc2ccc(C(=O)C3C[C@H]4CNC[C@H]4N3)cc2OC(F)F)n1 (stereo partly shown) [Compound 224] |
| 218 | 1220 | COc1cc(C(=O)NC2CCN(CCO)CC2)ccc1Cn1ncc2nc(N)nc(NCC3CC4(CC4)C3)c21 [Compound 225] |
| 555 | 425 | COc1cc(C(=O)N2CCC(S(C)(=O)=O)CC2)ccc1Cn1ncc2nc(N)nc(NCC3CC4(CC4)C3)c21 [Compound 226] |
| 125 | 507 | COc1cc(C(=O)N2CCS(=O)(=O)CC2)ccc1Cn1ncc2nc(N)nc(NCC3CC4(CC4)C3)c21 [Compound 227] |
| 553 | 894 | COc1cc(C(=O)N(CCO)CCO)ccc1Cn1ncc2nc(N)nc(NCC3CC4(CC4)C3)c21 [Compound 228] |
| 37.6 | 37.9 | CCC[C@@H](CCO)Nc1nc(N)nc2cnn(Cc3ccc(C(=O)N4CC5(C4)CN(C4CCOCC4)C5)cc3OC)c12 [Compound 229] |
| 197 | 276 | COc1cc(C(=O)NC2CCN(CC(=O)N(C)C)CC2)ccc1Cn1ncc2nc(N)nc(NCC3CC4(CC4)C3)c21 [Compound 230] |
| 32.4 | 166 | COc1cc(C(=O)NCCCN(C)C)ccc1Cn1ncc2nc(N)nc(NCC3CC4(CC4)C3)c21 [Compound 231] |
| 32.9 | 37.1 | CCC[C@@H](CCO)Nc1nc(N)nc2cnn(Cc3ccc(C(=O)N4CC5(C4)CN(C(C)C)C5)cc3OC)c12 [Compound 232] |
| 265 | 412 | CCC[C@@H](CCO)Nc1nc(N)nc2cnn(Cc3ccc(C(=O)N4CC5(CN(CCO)C5)C4)cc3OC)c12 [Compound 233] |
| 10.2 | 93.2 | COc1cc(C(=O)NCCN(C)C)ccc1Cn1ncc2nc(N)nc(NCC3CC4(CC4)C3)c21 [Compound 234] |
| 223 | 146 | COc1cc(C(=O)N2CCN(C(C)=O)CC2)ccc1Cn1ncc2nc(N)nc(NCC3CC4(CC4)C3)c21 [Compound 235] |
| 284 | 199 | COc1cc(C(=O)N2CCN(S(C)(=O)=O)CC2)ccc1Cn1ncc2nc(N)nc(NCC3CC4(CC4)C3)c21 [Compound 236] |
| 958 | 589 | COc1cc(C(=O)N2CCN(CC(F)(F)F)CC2)ccc1Cn1ncc2nc(N)nc(NCC3CC4(CC4)C3)c21 [Compound 237] |
| 35.2 | 86 | COc1cc(C(=O)NC2CCN(CC(C)(C)O)CC2)ccc1Cn1ncc2nc(N)nc(NCC3CC4(CC4)C3)c21 [Compound 238] |
| 110 | 39 | COc1cc(C(=O)N2CCN(CC(C)(C)O)CC2)ccc1Cn1ncc2nc(N)nc(NCC3CC4(CC4)C3)c21 [Compound 239] |
| 845 | 291 | COc1cc(C(=O)N2C[C@@H]3CN(S(C)(=O)=O)C[C@@H]3C2)ccc1Cn1ncc2nc(N)nc(NCC3CC4(CC4)C3)c21 [Compound 240] |
| 14 | 72.9 | COc1cc(CN2CC3(C2)CN(C[C@H](C)O)C3)ccc1Cn1ncc2nc(N)nc(NCC3CC4(CC4)C3)c21 [Compound 241] |
| 588 | 829 | Nc1nc(NCC2CC3(CC3)C2)c2c(cnn2Cc2ccc(CN3CC4(CNC4)C3)cc2OC(F)F)n1 [Compound 242] |
| 193 | 283 | Nc1nc(NCC2CC3(CC3)C2)c2c(cnn2Cc2ccc(CN3C[C@H]4CNC[C@H]4C3)cc2OC(F)F)n1 [Compound 243] |
| 31.1 | 138 | CCCCNc1nc(N)nc2c(C)nn(Cc3ccc(CN4CC5(C4)CN(C(C)=O)C5)cc3OC)c12 [Compound 244] |
